The source made the active and inactive calls. The calls are words filed in the database; no cut-off is given here.
Organism: Oryctolagus cuniculus
Experiment: In vitro ability to inhibit the herpes HSV-2 virus; Inactive
Assay type: functional, organism-based
Conditions: herpes simplex virus

SMILES | MIC
CCOP(=O)(CCCCCCOc1c(OC)cccc1OC)OCC | inactive
CCOP(=O)(CCCCCCOc1ccc(Br)cc1)OCC | inactive
CCOP(=O)(CCCCCCOc1ccc(C(=O)O)cc1)OCC | inactive
CCOP(=O)(CCCCCCOc1ccc(Cl)cc1)OCC | inactive
CCOP(=O)(CCCCCOc1ccc(OC)cc1Cl)OCC | inactive
CCOP(=O)(CCCCOc1ccc(OC)cc1Cl)OCC | inactive

Reference: ChEMBL document CHEMBL1122659, “Synthesis of some phosphonates with antiherpetic activity” (1984)
